Reference: US20100056526A1, “HETEROMONOCYCLIC COMPOUND AND USE THEREOF” (Takeda Pharmaceutical Company Limited, priority 2006, published 2010)
Where a name gives a salt, the structure may show the parent alone. Read-outs that look alike come from different tables or passages of the source.

Legend:
human AT1 receptor = target: T1, human AT1 receptor (Homo sapiens, UniProt P30556); assay: Binding assay using human AT1 receptor-expressing CHO-K1 cell membrane fraction ([125I]-angiotensin II); details: 22.5 pM [125I]-angiotensin II, 9 μg AT1 membrane, 1 hr room temperature; read-out: AT1 receptor binding inhibitory action (IC50 (nM))
T1 construct: expressed in transfected cells; host or cells: CHO-K1
T1 sequence (P30556 1-359): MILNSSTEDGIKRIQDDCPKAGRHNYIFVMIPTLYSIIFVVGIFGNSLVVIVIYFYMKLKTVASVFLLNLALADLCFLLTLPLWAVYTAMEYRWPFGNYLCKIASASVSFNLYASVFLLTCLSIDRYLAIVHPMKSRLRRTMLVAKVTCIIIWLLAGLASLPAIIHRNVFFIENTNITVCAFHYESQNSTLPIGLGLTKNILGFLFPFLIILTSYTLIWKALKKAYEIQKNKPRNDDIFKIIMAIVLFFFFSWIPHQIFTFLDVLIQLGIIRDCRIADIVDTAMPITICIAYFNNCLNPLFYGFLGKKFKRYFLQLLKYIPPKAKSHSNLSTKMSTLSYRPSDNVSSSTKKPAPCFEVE
Protocol: The membrane fraction for human AT1 receptor binding assay was prepared as follows. CHO-K1 cell capable of stable expression of human AT1 receptor was cultured, recovered, suspended in homogenize buffer (10 mM NaHCO3 (pH 7.4), 5 mM EDTA, 1×Complete EDTA free) [manufactured by Roche, Switzerland], and homogenized. The homogenate was centrifuged at low-speed (900×g, 10 min, 4° C.), and the supernatant was recovered and ultracentrifuged (90,000×g, 1 hr, 4° C.). The supernatant was discarded, and the pellets were resuspended in resuspension buffer (50 mM Tris (pH 7.4), 1 mM EDTA, 1×Complete EDTA free).
The binding assay was performed in the presence of 22.5 pM [^125I]-angiotensin II [manufactured by PerkinElmer, USA], 9 μg of AT1 membrane and test compound in 100 μL (total reaction volume) of reaction buffer (50 mM Tris (pH 7.4), 10 mM MgCl2 supplemented or not supplemented with 0.3 mg/mL fatty acid-free bovine serum albumin [manufactured by Wako Pure Chemical Industries, Ltd., Japan]). The reaction mixture was incubated in 96 well polypropylene plate for 1 hr at room temperature, and the reaction was quenched by rapid filtration (96 well cell harvester) through a GF/C filter treated with wash buffer (50 mM Tris (pH 7.4)). Subsequently, the filter was washed 5 times with 0.3 mL of ice-cooled wash buffer. The filter was air-dried, and [^125I]-angiotensin II binding radioactivity was assayed with Top Count scintillation counter. Total binding was measured in the presence of 1% DMSO and nonspecific binding was measured in the presence of 1 μM CV-11974. The binding data was analyzed by GraphPad Prism program and the IC50 value (compound concentration showing 50% of the maximum value of inhibition percent) of the test compound was calculated.

PPARγ = target: T2, PPARγ (Homo sapiens, UniProt P37231); assay: Evaluation of PPARγ activating action (luciferase reporter in PPARγ:RXRα:4ERPP/CHO-K1 cells); assay type: cell-based; details: CHO-K1, 24 h, read-out: PPARγ activating action (activation % (10^−6 M))
T2 construct: expressed in transfected cells; host or cells: CHO-K1
T2 sequence (P37231 1-477 isoform P37231-2): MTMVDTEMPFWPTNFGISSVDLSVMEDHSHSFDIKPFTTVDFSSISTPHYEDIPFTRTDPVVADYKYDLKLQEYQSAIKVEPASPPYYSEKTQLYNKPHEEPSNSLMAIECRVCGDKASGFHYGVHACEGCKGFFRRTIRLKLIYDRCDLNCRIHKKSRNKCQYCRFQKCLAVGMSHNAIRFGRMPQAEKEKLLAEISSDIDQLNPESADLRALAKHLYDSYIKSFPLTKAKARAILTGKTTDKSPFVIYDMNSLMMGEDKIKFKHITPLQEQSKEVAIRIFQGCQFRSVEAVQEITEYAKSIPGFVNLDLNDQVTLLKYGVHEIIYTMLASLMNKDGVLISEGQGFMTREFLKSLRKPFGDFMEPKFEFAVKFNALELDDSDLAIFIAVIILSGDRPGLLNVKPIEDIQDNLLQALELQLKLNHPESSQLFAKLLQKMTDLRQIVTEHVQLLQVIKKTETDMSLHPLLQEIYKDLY
T2 sequence (P19793 1-462 partner): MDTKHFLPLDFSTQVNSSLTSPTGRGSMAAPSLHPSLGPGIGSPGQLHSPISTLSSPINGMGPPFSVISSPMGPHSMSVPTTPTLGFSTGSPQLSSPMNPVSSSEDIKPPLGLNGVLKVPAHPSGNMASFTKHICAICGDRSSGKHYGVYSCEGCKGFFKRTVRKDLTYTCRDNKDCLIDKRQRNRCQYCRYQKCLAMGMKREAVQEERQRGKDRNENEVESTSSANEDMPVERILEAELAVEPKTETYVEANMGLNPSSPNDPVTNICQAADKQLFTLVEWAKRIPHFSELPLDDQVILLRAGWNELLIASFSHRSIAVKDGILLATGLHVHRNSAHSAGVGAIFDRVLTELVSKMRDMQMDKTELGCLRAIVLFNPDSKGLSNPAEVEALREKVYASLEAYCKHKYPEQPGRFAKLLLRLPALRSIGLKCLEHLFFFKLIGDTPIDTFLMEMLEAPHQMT
Protocol: PPARγ:RXRα:4ERPP/CHO-K1 cells obtained in the following Reference Example 5 were cultured in F12 medium [manufactured by INVITROGEN, USA] containing 10% fetal bovine serum [manufactured by MOREGATE, Australia], seeded in a 96-well half area white plate [manufactured by Corning Coster Corporation, USA] at the density of 5×10^3 cells/well and cultured in a CO2 gas incubator at 37° C. overnight.
Then the medium was removed from the 96-well half area white plate, 45 μl of Ham's F12 medium containing 0.1% fatty acid-free bovine serum albumin (BSA) and 5 μl of test compound were added, and the cells were cultured in a CO2 gas incubator at 37° C. for 1 day. The medium was removed and 20 μl of PicaGene 7.5 [manufactured by TOYO INK MFG. CO., LTD.,.Japan] diluted 2-fold with HBSS (HANKS' BALANCED SALT SOLUTION) [manufactured by BIO WHITTAKER, USA] was added. After stirring, the luciferase activity was determined using 1420 ARVO Multilabel Counter [manufactured by PerkinElmer, USA].
The percent (%) was calculated from the luciferase activity of each test compound when the luciferase activity of the control compound (compound X: 5-[3-(4-{[2-(2-furyl)-5-methyl-1,3-oxazol-4-yl]methoxy}-3-methoxyphenyl)propyl]-1,3-oxazolidine-2,4-dione) (1 μM) was 100% and that of the test compound non-administration group was 0%.
A CHO-K1 cell cultured in a 150 cm^2 cell culture flask [manufactured by Corning Costar Corporation, USA] containing Ham's F12 medium [manufactured by INVITROGEN, USA] supplemented with 10% fetal bovine serum [manufactured by INVITROGEN, USA] was scraped by treating with 0.5 g/L trypsin-0.2 g/L EDTA (ethylenediaminetetraacetic acid) [manufactured by Life Technologies, Inc., USA], and then the cell was washed with PBS (Phosphate-buffered saline) [manufactured by INVITROGEN, USA], centrifuged (1000 rpm, 5 minutes) and suspended in PBS. Subsequently, DNA was introduced into the cell under the conditions shown below using GENE PULSER [manufactured by Bio-Rad Laboratories, USA].
Namely, to a cuvette having a 0.4 cm gap were added 8×10^6 cells and 10 μg of plasmid pVgRXR2-hPPARγ obtained in Reference Example 4 and 10 μg of reporter plasmid pGL3-4ERPP-TK neo obtained in Reference Example 3, which was subjected to electroporation at the voltage of 0.25 kV under the capacitance of 960 μF. Subsequently, the cell was transferred into a F12 medium containing 10% fetal bovine serum and cultured for 24 hours, and then the cell was scraped again and centrifuged, and then suspended in Ham's F12 medium containing 10% fetal bovine serum supplemented with 500 μg/ml of Geneticin [manufactured by INVITROGEN, USA] and 250 μg/ml of Zeocin [manufactured by INVITROGEN, USA]. The obtained suspension was diluted to the density of 10^4 cells/ml and inoculated in a 96-well plate [manufactured by Corning Costar Corporation, USA], which was cultured in a CO2 gas incubator at 37° C., whereby obtaining a Geneticin- and Zeocin-resistant transformant.
Subsequently, after the transformant cell line thus obtained was cultured in a 24-well plate [manufactured by Corning Costar Corporation, USA], a cell line in which the luciferase was expressed and induced, i.e., PPARγ:RXRα:4ERPP/CHO-K1 cell was selected by the addition of 10 μM pioglitazone hydrochloride.

[1] = test compound 10^−6 M, luciferase activity relative to control compound X (1 μM) = 100%, non-administration group = 0%

| Compound | IC50 (human AT1 receptor) [nM] | activation at 1 µM (PPARγ; [1]) [%] | activation at 1 µM (PPARγ) [%] |
| --- | --- | --- | --- |
| CCCc1nc(CC)n(-c2ccc(OC3(COC)CCCC3)cc2)c(=O)c1Cc1ccc(-c2ccccc2-c2noc(=O)[nH]2)cc1 [Example 389, 2-ethyl-3-(4-{[1-(methoxymethyl)cyclopentyl]oxy}phenyl)-5-{[2′-(5-oxo-4,5-dihydro-1,2,4-oxadiazol-3-yl)biphenyl-4-yl]methyl}-6-propylpyrimidin-4(3H)-one] | 1.8 | 18.1 |  |
| C=COc1ccc(-n2c(C)nc(CCC)c(Cc3ccc(-c4ccccc4-c4noc(=O)[nH]4)cc3F)c2=O)cc1 [Example 408, 5-{[3-fluoro-2′-(5-oxo-4,5-dihydro-1,2,4-oxadiazol-3-yl)biphenyl-4-yl]methyl}-2-methyl-6-propyl-3-[4-(vinyloxy)phenyl]pyrimidin-4(3H)-one] | 1.4 | 48.7 |  |
| CCCc1nc(C)n(-c2ccc(OC3CCC(O)CC3)cc2)c(=O)c1Cc1ccc(-c2ccccc2-c2noc(O)n2)cc1F (centres unmarked) [Example 343, 5-{[3-fluoro-2′-(5-oxo-4,5-dihydro-1,2,4-oxadiazol-3-yl)biphenyl-4-yl]methyl}-3-{4-[(4-hydroxycyclohexyl)oxy]phenyl}-2-methyl-6-propylpyrimidin-4(3H)-one] | 0.7 | 15.2 |  |
| CCCc1nc(C)n(-c2ccc(OC(C)CC)cc2)c(=O)c1Cc1ccc(-c2ccccc2-c2noc(=O)[nH]2)cc1 (centres unmarked) [Example 271, 3-(4-sec-butoxyphenyl)-2-methyl-5-{[2′-(5-oxo-4,5-dihydro-1,2,4-oxadiazol-3-yl)biphenyl-4-yl]methyl}-6-propylpyrimidin-4(3H)-one] | 1.9 | 37.1 |  |
| CCCc1nc(CC)n(-c2ccc(O[C@H]3CC[C@H](O)CC3)cc2)c(=O)c1Cc1ccc(-c2ccccc2-c2noc(=O)[nH]2)cc1 [Example 414, 2-ethyl-3-{4-[(trans-4-hydroxycyclohexyl)oxy]phenyl}-5-{[2′-(5-oxo-4,5-dihydro-1,2,4-oxadiazol-3-yl)biphenyl-4-yl]methyl}-6-propylpyrimidin-4(3H)-one] | 1.1 | 45 |  |
| CCCCc1nc(C)c(C(=O)c2ccccc2)c(=O)n1Cc1ccc(-c2ccccc2-c2noc(=O)[nH]2)cc1 [Example 453, 5-benzoyl-2-butyl-6-methyl-3-{[2′-(5-oxo-4,5-dihydro-1,2,4-oxadiazol-3-yl)biphenyl-4-yl]methyl}pyrimidin-4(3H)-one] | 2.9 | 22.5 |  |
| CCCCc1nc(C)n(-c2ccc(OCC)cc2)c(=O)c1Cc1ccc(-c2ccccc2-c2noc(=O)[nH]2)cc1 [Example 222, 6-butyl-3-(4-ethoxyphenyl)-2-methyl-5-{[2′-(5-oxo-4,5-dihydro-1,2,4-oxadiazol-3-yl)biphenyl-4-yl]methyl}pyrimidin-4(3H)-one] | 1.3 | 29.3 |  |
| CCCc1nc(CC)n(-c2ccc(OC3CCCC(O)C3)cc2)c(=O)c1Cc1ccc(-c2ccccc2-c2noc(=O)[nH]2)cc1 (centres unmarked) [Example 422, 2-ethyl-3-{4-[(3-hydroxycyclohexyl)oxy]phenyl}-5-{[2′-(5-oxo-4,5-dihydro-1,2,4-oxadiazol-3-yl)biphenyl-4-yl]methyl}-6-propylpyrimidin-4(3H)-one] | 0.9 | 22.2 |  |
| CCCc1nc(C)n(-c2ccc(OC(C)C)cc2)c(=O)c1Cc1ccc(-c2ccccc2-c2noc(O)n2)cc1 [Example 88, 3-(4-isopropoxyphenyl)-2-methyl-5-{[2′-(5-oxo-4,5-dihydro-1,2,4-oxadiazol-3-yl)biphenyl-4-yl]methyl}-6-propylpyrimidin-4(3H)-one] | 1.7 | 31.2 |  |
| CCCc1nc(CC)n(-c2ccc3c(c2)CCO3)c(=O)c1Cc1ccc(-c2ccccc2-c2noc(O)n2)cc1 [Example 311, 3-(2,3-dihydro-1-benzofuran-5-yl)-2-ethyl-5-{[2′-(5-oxo-4,5-dihydro-1,2,4-oxadiazol-3-yl)biphenyl-4-yl]methyl}-6-propylpyrimidin-4(3H)-one potassium salt] | 1.6 |  | 38.1 |
